Assays:
[1] = tested on: SARS-CoV-2 variant, B.1.351; format: cell-based
[2] = tested on: B.1.617.2 (delta variant); format: cell-based, SARS-CoV-2; settings: healthy control subjects n=4, m.o.i. 0.1, 48 hrs; 10 mg/ml POPG, 4 mg/ml PI, prophylactic
[3] = tested on: B1.1.529 (omicron variant); format: cell-based, SARS-CoV-2; settings: healthy control subjects n=4, m.o.i. 0.1, 48 Hr; 10 mg/ml POPG, 4 mg/ml PI, prophylactic

Molecule	attenuation of B.1.351 replication [1] [%]	B.1.617.2 (delta variant) replication [2]	B.1.1.529 (Omicron variant) replication [3]
phosphatidylinositol [PI]	70	inhibited	inhibited
CCCCCCCC/C=C\CCCCCCCC(=O)O[C@H](COC(=O)CCCCCCCCCCCCCCC)COP(=O)(O)OCC(O)CO (stereo partly drawn) [POPG, palmitoyl-oleoyl-phosphatidylglycerol]	50	inhibited	inhibited

— patent US20260183321A1, “TREATMENT OF CORONAVIRUS INFECTIONS WITH ANTIMICROBIAL PHOSPHOLIPID COMPOSITIONS” (NATIONAL JEWISH HEALTH, priority 2022, published 2026)
